Results reported in patent US8834852B2, “Composition for oral cavity” (Kao Corporation, priority 2004, dated 2014).

Key:
[1] = tested on: coaggregation of Fusobacterium nucleatum ssp. polymorphum ATCC10953 with Streptococcus sobrinus B13; assay: Coaggregation inhibition test (precipitation of a clump); type: cell-based; set-up: key to Coaggregation inhibition effect: the mixture in which no precipitation of a clump was observed was evaluated that test substance had a coaggregation inhibition effect (+); the mixture in which precipitation was observed was evaluated that the test substance had no coaggregation inhibition effect (−); conditions: 200 μL of 2% (wt/vol %) test substance solution, room temperature for 30 minutes; for precipitation due to coaggregation: result in words
Experimental: (§1) Streptococcus sobrinus B13 was used as cariogenic bacteria, while Fusobacterium nucleatum ssp. polymorphum ATCC10953 was used as bacteria of the genus Fusobacterium.
After inoculation of Streptococcus sobrinus into a brain heart infusion broth, it was cultured at 37° C. for 24 hours under an anaerobic condition. Fusobacterium nucleatum ssp. polymorphum was, on the other hand, inoculated into a GAM bouillon medium and then cultured at 37° C. for 48 hours under an anaerobic condition. After completion of the cultivation, bacteria were collected by centrifugal separation and washed twice with a coaggregation buffer (1 mM tris(hydroxymethyl)aminomethane, 0.1 mM calcium chloride, 0.1 mM magnesium chloride, and 0.15 M sodium chloride). After washing, Fusobacterium nucleatum and Streptococcus sobrinus were adjusted with the coaggregation buffer to give a turbidity (OD: UV-1600, UV-Visible spectrophotometer (product of Shimadzu Corporation)), at wavelength of 600 nm, of 2.0, whereby bacteria suspensions were prepared. Test substances such as a compound represented by the formula (A) were adjusted in advance with the coaggregation buffer to give a concentration of 2% (wt/vol %). Galactose laurate was synthesized in a known manner (Patent Document 2: JP-A-2000-159675). As the other test substances, lactose, galactose, sucrose, glucose, and fructose (each, product of Wako Pure Chemicals), and β-lauryl glucoside, β-lauryl maltoside and sucrose monolaurate (each, product of Dojindo Laboratories) were employed. In the coaggregation test, 400 μL of the suspension of Fusobacterium nucleatum, 200 μL of the suspension of Streptococcus sobrinus, and 200 μL of the 2% (wt/vol %) solution of the test substance were mixed successively by using a No. 2 RIA tube (product of Asahi Techno Glass).

[2] = tested on: coaggregation of Fusobacterium nucleatum ssp. polymorphum ATCC10953 with Streptococcus sobrinus B13; assay: Percent coaggregation by turbidity change (Vmax, OD 600 nm); type: cell-based; conditions: final concentration 10% (wt/vol %); Vmax of coaggregation buffer control = 100%
Experimental: as §1
The cariogenic bacteria and bacteria of the genus Fusobacterium were cultured on a brain heart infusion broth (product of Becton, Dickinson and Company) and a GAM broth (product of Nissui Pharmaceutical), respectively, under the conditions of 37° C., and 10% CO2, 10% H2, and 80% N2 during from the logarithmic phase to stationary phase. The respective bacteria were collected by centrifugal separation at 5,000 rpm for 5 minutes. After centrifugal washing (for 5 minutes at 5,000 rpm) three times with a coaggregation buffer (1 mM tris(hydroxymethyl)aminomethane, 0.1 mM calcium chloride, 0.1 mM magnesium chloride, and 0.15 M sodium chloride), they were each adjusted to have a turbidity OD at 600 nm of 2.0.
After addition of 60 μL of each of mannitol, palatinit, erythritol, xylitol, sorbitol and lactitol (product of Wako Pure Chemicals) to a 96-well microtiterplate to give the final concentration of 10% (wt/vol %), 30 μL of the bacteria of the genus Fusobacterium was dispensed and stirred, followed by the addition of 30 μL of the cariogenic bacteria. Then, by using a microplate reader (product of Molecular Devices), the turbidity (OD at 600 nm) was measured at one-minute intervals for 30 minutes and a change ratio Vmax (mOD/min) of the turbidity was calculated. Using the Vmax of a similar mixture containing the coaggregation buffer instead of the test substance as control (100%), the percent coaggregation was calculated. Based on a value thus obtained, the coaggregation reaction was measured.

Compound | Coaggregation inhibition effect [1] | precipitation due to coaggregation [1] | percent coaggregation [2]
O=C(CO)[C@@H](O)[C@H](O)[C@H](O)CO [Fructose, fructose] | − | obvious precipitation due to coaggregation is observed | 
O=C[C@H](O)[C@@H](O)[C@@H](O)[C@H](O)CO [Galactose, galactose] | + | no precipitation due to coaggregation is observed | 
OC[C@H]1O[C@@H](O[C@H]2[C@H](O)[C@@H](O)C(O)O[C@@H]2CO)[C@H](O)[C@@H](O)[C@H]1O (stereo partly shown) [Lactose, lactose] | + | no precipitation due to coaggregation is observed | 
OC[C@H]1O[C@@](CO)(O[C@H]2O[C@H](CO)[C@@H](O)[C@H](O)[C@H]2O)[C@@H](O)[C@@H]1O [Sucrose, sucrose] | − | obvious precipitation due to coaggregation is observed | 
OC[C@@H](O)[C@@H](O)CO [erythritol] |  |  | 35%
OC[C@@H](O)[C@@H](O[C@@H]1O[C@H](CO)[C@H](O)[C@H](O)[C@H]1O)[C@H](O)[C@@H](O)CO [lactitol] |  |  | 0%
OC[C@@H](O)[C@@H](O)[C@H](O)[C@H](O)CO [mannitol] |  |  | 16%
OC[C@@H](O)[C@@H](O)[C@H](O)[C@@H](O)CO [sorbitol] |  |  | 62%
OC[C@@H](O)[C@H](O)[C@@H](O)CO [xylitol] |  |  | 20%
CCCCCCCCO[C@H]1O[C@H](CO)[C@H](O)[C@H](O)[C@H]1O [α-Octyl galactoside, α-octyl galactoside] | + | no precipitation due to coaggregation is observed | 
CCCCCCCCCCCCO[C@@H]1O[C@H](CO)[C@@H](O)[C@H](O)[C@H]1O [β-Lauryl glucoside, β-lauryl glucoside] | − | obvious precipitation due to coaggregation is observed | 
CCCCCCCCCCCCO[C@@H]1O[C@H](CO)[C@@H](O[C@H]2O[C@H](CO)[C@@H](O)[C@H](O)[C@H]2O)[C@H](O)[C@H]1O [β-Lauryl maltoside, β-lauryl maltoside] | − | obvious precipitation due to coaggregation is observed | 
CCCCCCCCCCCCOCCOCCOCCO[C@@H]1O[C@H](CO)[C@H](O)[C@H](O)[C@H]1O [β-Trioxyethylene dodecylgalactoside, β-trioxyethylene lauryl galactoside] | + | no precipitation due to coaggregation is observed | 
CCCCCCCCO[C@@H]1O[C@H](CO)[C@H](O)[C@H](O)[C@H]1O [β-octyl galactoside] | + | no precipitation due to coaggregation is observed | 
Galactose laurate [Galactose monolaurate] | + | no precipitation due to coaggregation is observed | 
palatinit |  |  | 71%
sucrose monolaurate | − | obvious precipitation due to coaggregation is observed | 
